Data on two compounds can be found in patent US20250082611A1, “DOSING REGIMEN FOR AN NLRP3 INHIBITOR IN THE TREATMENT OF OSTEOARTHRITIS” (Novartis AG, priority 2021, published 2025).

The assay deals with IL-1β production in PMA-differentiated THP-1 cells. In words: IL-1β production in PMA-differentiated THP-1 cells stimulated with gramicidin (hTHP-1 assay, 2% fetal bovine serum). As to conditions: Homo sapiens, hTHP-1 assay containing 2% fetal bovine serum. The format is cell-based. The method, then: THP-1 cells were purchased from the American Type Culture Collection and sub-cultured according to instructions from the supplier. Cells were cultured in complete RPMI 1640 (containing 10% heat inactivated FBS, penicillin (100 units/ml) and streptomycin (100 μg/ml)), and maintained in log phase prior to experimental setup. Prior to the experiment, compounds were dissolved in dimethyl sulfoxide (DMSO) to generate a 30 mM stock. The compound stock was first pre-diluted in DMSO to 3, 0.34, 0.042 and 0.0083 mM intermediate concentrations and subsequently spotted using Echo550 liquid handler into an empty 384-well assay plate to achieve desired final concentration (e.g. 100, 33, 11, 3.7, 1.2, 0.41, 0.14, 0.046, 0.015, 0.0051, 0.0017 μM). DMSO was backfilled in the plate to achieve a final DMSO assay concentration of 0.37%. The plate was then sealed and stored at room temperature until required.
THP-1 cells were treated with PMA (Phorbol 12-myristate 13-acetate) (20 ng/ml) for 16-18 hours. On the day of the experiment the media was removed and adherent cells were detached with trypsin for 5 minutes. Cells were then harvested, washed with complete RPMI 1640, spun down, and resuspended in RPMI 1640 (containing 2% heat inactivated FBS, penicillin (100 units/ml) and streptomycin (100 μg/ml). The cells were plated in the 384-well assay plate containing the spotted compounds at a density of 50,000 cells/well (final assay volume 50 μl). Cells were incubated with compounds for 1 hour and then stimulated with gramicidin (5 μM) (Enzo) for 2 hours. Plates were then centrifuged at 340 g for 5 min. Cell free supernatant (40 μL) was collected using a 96-channel PlateMaster (Gilson) and the production of IL-1β was evaluated by HTRF (cisbio). The plates were incubated for 18 h at 4° C. and read using the preset HTRF program (donor emission at 620 nm, acceptor emission at 668 nm) of the SpectraMax i3x spectrophotometer (Molecular Devices, software SoftMax 6). A vehicle only control and a dose titration of CRID3 (100-0.0017 μM) were run concurrently with each experiment. […]

In turn, `CC(C)(O)c1ncc(S(N)(=O)=NC(=O)Nc2c3c(cc4c2CCC4)CCC3)s1` (centres unmarked) [Compound I, N′-(1,2,3,5,6,7-hexahydro-s-indacen-4-ylcarbamoyl)-2-(2-hydroxypropan-2-yl) thiazole-5-sulfonimidamide] gave an IC50 of 40 to 200 nM.
In the case of `CC(C)(O)c1ncc([S@@](N)(=O)=NC(=O)Nc2c3c(cc4c2CCC4)CCC3)s1` [Compound IB, (S)-N′-((1,2,3,5,6,7-hexahydro-s-indacen-4-yl)carbamoyl)-2-(2-hydroxypropan-2-yl) thiazole-5-sulfonimidamide] it was 200 to 1000 nM.
